Reference: patent US4963363A, “Phospholipid delivery vehicle for aqueous-insoluble active ingredients” (priority 1989, dated 1990)
Counter-ions that a name gives are not always drawn.

Experiments:
humans = conditions: in vivo, iv; cited from earlier work
[1] = Compatibility of lipid triglycerides with HXM solubilization and phospholipid emulsion
[2] = Solubility of HXM in pure triglycerides; type: physicochemical; conditions: organic solvent or mixture
[3] = cited from earlier work

CN(C)c1nc(N(C)C)nc(N(C)C)n1 [Gentisate salt of HXM]
local irritation (humans): severe local irritation

CCCCCCCC/C=C\CCCCCCCC(=O)OCC(COC(=O)CCCCCCC/C=C\CCCCCCCC)OC(=O)CCCCCCC/C=C\CCCCCCCC [triolein]
ability of triglyceride to solubilize HXM [1]: ineffective at solubilizing HXM

CN(C)c1nc(N(C)C)nc(N(C)C)n1 [HXM, 2,4,6-Tris(dimethylamino)-s-triazine]
solubility [2]: > 50000 µg/mL
solubility of the free drug in saline solution ([3]; saline solution, Wickes et al. 1985): 70 µg/mL
solubility of the free drug in water ([3]; water, Ames et al. 1982): 200 µg/mL
